For series [1], the system named is MCF-7 human breast cancer cells. In words: XTT cytotoxicity assay. The conditions noted are these: MCF7, MCF-7, 72 hours, some cells marked (M). The format is cell-based.
Series [2] shares this test system. In words: Crystal violet cell growth assay. The format is cell-based. The conditions noted are these: MCF7, MCF-7, 72 hours, read-out: Cr. Violet(IC50). The method in brief: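 MCF-7 cells (5×10^4/well) in DMEM + 10% FBS, cultured overnight at 37° C, then given compounds in DMSO at 50, 40, 30, 20 and 10 μg/ml in triplicate for 72 h. Fixed cells stained with crystal violet, solubilised in SDS, OD490 read as growth; IC50 computed.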

Series [3] can be described thus: Weight loss screen in Balb/C mice. The format is in vivo. The conditions noted are these: for Deaths in weight loss screen: 60 mg/kg. The procedure: Balb/C mice (Jackson Labs) are utilized for the initial weight loss screening. Animals are housed in temperature and 12 hour day/night cycle rooms and fed mouse chow and water ad lib. Three mice are utilized for each compound tested with vehicle controls in triplicate per experiment. For the experiments, mice are housed separately for each compound tested three mice to a cage. […] Mice are observed and weighed daily; average weights and standard errors are computed with Excel (Microsoft). The experiment continues until treated animals reach their pretreatment weights. […]

For series [4], the system named is Enterococcus faecalis (ATCC # 29212). The series is described as follows: Broth microdilution MIC. The format is cell-based. The conditions noted are these: for MIC: Enterococcus faecalis, ATCC29212. The method in brief:
(§1)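 Run in Mueller Hinton Broth and Trypticase Soy Broth, with inoculum at 0.5 McFarland diluted 1:10 and compounds in DMSO at 25 to 0.78 ug/ml (final well concentrations not given) in duplicate. OD600 read after 24 h at 37° C; MIC derived by linear regression.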
(Broth dilution looks for growth in wells or tubes with falling amounts of substance.)

Series [5] has as its system Escherichia coli (ATCC # 25922). The series is described as follows: Broth microdilution MIC. Format: cell-based. The conditions noted are these: for Ecoli/MH(MIC): Mueller Hinton Broth. The method in brief: as §1
Series [6] has as its system Pseudomonas aeruginosa (ATCC # 27853). In words: Broth microdilution MIC. The conditions noted are these: for PSAE/MH(MIC): Mueller Hinton Broth; for PSAE/Tsoy(MIC): Trypticase Soy Broth. The format is cell-based. The method in brief:
as §1

For series [7], the system named is Staphylococcus aureus (ATCC # 29213). In words: Broth microdilution MIC. Format: cell-based. The note with it: Staphylococcus aureus, ATCC29213. The method in brief:
as §1

[8] abbreviates: Mus musculus, 48 h, 30 mg/kg, day2, read-out: Weight Loss.
Where [9] appears, read: Trypticase Soy Broth, read-out: EF/Tsoy(MIC).
[10] abbreviates: Mueller Hinton Broth, read-out: SA/MH(MIC).
Where [11] appears, read: Trypticase Soy Broth, read-out: SA/Tsoy(MIC).
[12] abbreviates: Mueller Hinton Broth, read-out: EF/MH(MIC).

Converted amounts (≈) assume the structure as drawn. Like-named read-outs stand apart in the source and are kept apart here.

In general, IC50 refers to the concentration that gives 50% inhibition. Consider `C=CCOC1=CC(=O)S[C@]1(C)CCCCCC` (racemic), for which the IC50 in series [1] was 9 ± 1.1 µg/mL (≈ 35.4 µM); in series [2], 8.1 µg/mL (≈ 31.8 µM). In series [3] (day2, three mice), the “Deaths in weight loss screen” value is on record as 2 of 3 dead. Also, in series [3] (setting [8]), the change in vivo at 30 mg/kg worked out at 8.8%. In addition, the MIC was 158 µg/mL (≈ 621 µM) in series [4] (setting [9]), 73 µg/mL (≈ 287 µM) in series [7] (setting [10]) and 54 µg/mL (≈ 212 µM) in series [7] (setting [11]). Moreover, the “EF/MH(MIC)” value in series [4] (Mueller Hinton Broth) is reported as “Neg”. For the same compound, the “Ecoli/MH(MIC)” value in series [5] is reported as “Neg”. In addition, in series [5] (Trypticase Soy Broth), the “Ecoli/Tsoy(MIC)” value is listed as “Neg”. Further, in series [6], the “PSAE/MH(MIC)” value is on record as “Neg”. For the same compound, the “PSAE/Tsoy(MIC)” value in series [6] is “Neg”.

Regarding `CCCCCCCCC1(C)SC(=O)C(C)=C1O` (stereo not drawn), the IC50 in series [1] was 48 ± 1.4 µg/mL (≈ 187 µM); in series [2], 29.4 ± 4.3 µg/mL (≈ 115 µM). The change in vivo at 30 mg/kg in series [3] (Mus musculus, 24 h, read-out: Weight Loss) came to 1%. The change in vivo at 60 mg/kg in series [3] (Mus musculus, ip, 24 h, 60 mg/kg intraperitoneally, day1, read-out: Weight Loss) came to 0%. In addition, the MIC in series [4] (setting [12]) turned out to be 44 µg/mL (≈ 172 µM); in series [4] (setting [9]) it was 105 µg/mL (≈ 409 µM); in series [5] (Escherichia coli, ATCC25922, Trypticase Soy Broth, read-out: Ecoli/Tsoy(MIC)), 290 µg/mL (≈ 1130 µM); in series [7] (setting [10]), 45 ± 2 µg/mL (≈ 175 µM); in series [7] (setting [11]), 23.5 ± 0.4 µg/mL (≈ 91.6 µM). In series [5], the “Ecoli/MH(MIC)” value is “Neg”. For the same compound, in series [6], the “PSAE/MH(MIC)” value is “Neg”. Further, the “PSAE/Tsoy(MIC)” value in series [6] was “Neg”.

Consider `C=CCOC1=CC(=O)S[C@]1(C)CCCCCCCC` (racemic), for which the figures for the IC50 in series [1] and in series [2] were 14.5 ± 1.5 µg/mL (≈ 51.3 µM) and 11 µg/mL (≈ 38.9 µM), respectively. Further, in series [3] (day3, three mice), the “Deaths in weight loss screen” value is listed as 3 of 3 dead. The change in vivo at 30 mg/kg in series [3] (setting [8]) was determined as 4.7%. Moreover, the MIC in series [4] (setting [12]) is 238 µg/mL (≈ 843 µM); in series [4] (setting [9]), 238 µg/mL (≈ 843 µM); in series [7] (setting [10]), 127 µg/mL (≈ 450 µM); in series [7] (setting [11]), 85 µg/mL (≈ 301 µM). In series [5], the “Ecoli/MH(MIC)” value is given as “Neg”. The “Ecoli/Tsoy(MIC)” value in series [5] (Trypticase Soy Broth) was “Neg”. Moreover, the “PSAE/MH(MIC)” value in series [6] is “Neg”. The “PSAE/Tsoy(MIC)” value in series [6] was “Neg”.
